The record followed here is US20240002450A1 (priority 2020, published 2024).

Bridge positions count the residues as written; N and C are the ends. Square brackets hold non-standard residues; d marks the D form. Peptide text beside a SMILES is read from it. S5 = C=CCCC[C@](C)(N)C(=O)O; βAla = NCCC(=O)O

The subject of the first data set is Makona variant of EBOV. Format: cell-based, Ebola virus.
On to “HX1WTKNITX2KINQIIHDFVNK, wherein X1 is (R)-2-(7′-octenyl) alanine and X2 is (S)-2-(4′-pentenyl)Alanine [SEboV-1]”, for which the “antiviral activity (prevention of EBOV infection)” value is “displayed antiviral activity”. Same read-out and setting: the result for “HX1WTKX2ITDKINQIIHDFVNK, wherein each of X1 and X2 is (S)-2-(4′-pentenyl)Alanine [SEboV-2]” reads “displayed antiviral activity”.

The next data set deals with Huh-7 hepatocellular carcinoma cells.
For `CC[C@H](C)[C@H](NC(=O)[C@H](CCC(N)=O)NC(=O)[C@H](CC(N)=O)NC(=O)[C@@H](NC(=O)[C@]1(C)CCCC=CCCC[C@](C)(NC(=O)[C@H](CCCCN)NC(=O)[C@@H](NC(=O)[C@H](Cc2c[nH]c3ccccc23)NC(=O)[C@H](CC(N)=O)NC(=O)[C@H](Cc2c[nH]cn2)NC(=O)CCNC(C)=O)[C@@H](C)O)C(=O)N[C@@H]([C@@H](C)CC)C(=O)N[C@@H]([C@@H](C)O)C(=O)N[C@@H](CC(N)=O)C(=O)N1)[C@@H](C)CC)C(=O)N[C@H](C(=O)N[C@@H](Cc1c[nH]cn1)C(=O)N[C@@H](CC(=O)O)C(=O)N[C@@H](Cc1ccccc1)C(=O)N[C@H](C(=O)N[C@@H](CC(N)=O)C(=O)N[C@@H](CCCCN)C(N)=O)C(C)C)[C@@H](C)CC` [SEboV-9, HNWTKX1ITNX2INQIIHDFVNK, wherein each of X1 and X2 is (S)-2-(4′-pentenyl)Alanine] (Ac-[βAla]HNWTK[S5]ITN[S5]INQIIHDFVNK-NH2; staple 7-11), the “cell permeability (ability to enter cells)” value is “readily penetrated cells”.

With `CC[C@H](C)[C@H](NC(=O)[C@H](CCCCN)NC(=O)[C@H](CC(=O)O)NC(=O)[C@@H](NC(=O)[C@@H](NC(=O)[C@H](CC(N)=O)NC(=O)[C@H](CCCCN)NC(=O)[C@@H](NC(=O)[C@H](Cc1c[nH]c2ccccc12)NC(=O)[C@H](CC(=O)O)NC(=O)[C@H](Cc1c[nH]cn1)NC(=O)CCNC(C)=O)[C@@H](C)O)[C@@H](C)CC)[C@@H](C)O)C(=O)N[C@@H](CC(=O)O)C(=O)N[C@@H](CCC(N)=O)C(=O)N[C@H](C(=O)N[C@H](C(=O)N[C@@H](Cc1c[nH]cn1)C(=O)N[C@@H](CC(=O)O)C(=O)N[C@@H](Cc1ccccc1)C(=O)N[C@H](C(=O)N[C@@H](CC(=O)O)C(=O)N[C@@H](CCCCN)C(N)=O)C(C)C)[C@@H](C)CC)[C@@H](C)CC` [WT EboV, reference compound], the “cell permeability (ability to enter cells)” value is “not cell permeable”.

The test system of a further data set is Zaire Ebola virus. It is filed as cell-based.
For “HDWTKNITDKIX1QIIX2DFVDK, wherein each of X1 and X2 is (S)-2-(4′-pentenyl)Alanine [Ac9]”, the “infected cells after 24 hours of infection” value is given as “almost no infected cells” and the “inhibition of virus infection at six hours post-infection” value is on record as “inhibited the virus”. Taken in the same sequence, the figures for “HDWTX1NIX2DKIX3QIIHDFVDK, wherein X1 is (S)-2-(4′-pentenyl)Alanine, X2 is 2,2-bis(4-pentenyl)glycine, and X3 is (S)-2-(4′-pentenyl)Alanine [Ac5]” were “almost no infected cells” and “inhibited the virus”. On the same counts, the results for “HX1WTKX2ITDKIDQIIHDFVDK, wherein each of X1 and X2 is (S)-2-(4′-pentenyl)Alanine [Ac3]” are “almost no infected cells” and “inhibited the virus”.

Take “X1DWTKNIX2DKIDQIIHDFVDK, wherein X1 is (R)-2-(7′-octenyl) alanine and X2 is (S)-2-(4′-pentenyl)Alanine [Ac4]”: the “infected cells after 24 hours of infection” value is recorded as “almost no infected cells” and the “inhibition of virus infection at six hours post-infection” value is reported as “inhibited the virus”.
